Data taken from ChEMBL document CHEMBL1139734, “Exploration of the diketoacid integrase inhibitor chemotype leading to the discovery of the anilide-ketoacids chemotype” (Bioorg Med Chem Lett, 2006).

Experiment: Inhibition of HIV integrase-mediated strand transfer activity
Parameters: species or system Human immunodeficiency virus

| IC50 | SMILES |
| --- | --- |
| 13400 nM | O=C(/C=C(\O)C(=O)O)Nc1ccc(F)cc1 |
| 2400 nM | O=C(/C=C(\O)C(=O)O)Nc1ccc(F)c(F)c1 |
| > 125000 nM | CN(C(=O)/C=C(\O)C(=O)O)c1cccc(Cl)c1 |
| 20 nM | O=C(O)/C(O)=C/C(=O)N1CCc2cc(Cl)c(Cl)cc21 |
| 160 nM | O=C(/C=C(\O)C(=O)O)Nc1ccc(Cl)c(Cl)c1 |
| 200 nM | O=C(O)/C(O)=C/C(=O)N1CCc2ccccc21 |
| 5600 nM | O=C(/C=C(\O)C(=O)O)Nc1ccc(Cl)cc1 |
| > 100000 nM | O=C(O)/C(O)=C/c1nc2ccc(Cl)cc2o1 |
| > 200000 nM | O=C(/C=C(\O)C(=O)O)Cc1ccccc1 |
| 230 nM | O=C(O)/C(O)=C/C(=O)N1CCc2cc(F)ccc21 |
| 700 nM | O=C(/C=C(\O)C(=O)O)Nc1cccc(Cl)c1 |
